Tests used:
Type in all cases: cell-based
T-47D = test: SRB growth assay, 6 days exposure, breast cancer
Experimental: (§1) Arsenic trioxide (1 mg/ml, 10 mg/ampoule, manufactured by Taylor Pharmaceuticals, Decatur, Ill.) was tested at five concentrations each at 10-fold dilutions, i.e., 10^−5, 10^−6, 10^−7, 10^−8 and 10^−9 μg/ml.
(§2) The in vitro tests were performed by incubating the test cells in the presence of the indicated concentration of arsenic trioxide under standard culture conditions for a designated period of time, which is followed by a sulforhodamine B (SRB) protein assay to estimate cell viability or growth. The cell lines are organized into subpanels according to the origin of the cell lines, e.g., leukemia, breast cancer, etc. A description of the cell lines and method of testing is described in Monk et al. (1997, Anticancer Drug Des. 12:533-41) and Weinstein et al., (1997, Science 275:343-9), which are incorporated herein in their entirety.
(§3) The measurement of an effect is expressed in Percentage Growth (PG). The measured effect of the compound on a cell line is calculated according to one or the other of the following two expressions: If (Mean ODtest−Mean ODzero)≧0. then PG=100×(Mean ODtest−Mean ODzero)/(Mean ODctrl−Mean ODzero) If (Mean ODtest−Mean ODzero)<0. then PG=100×(Mean ODtest−Mean ODzero)/(Mean ODzero where: • Mean ODzero=the average of optical density measurements of SRB-derived color just before exposure of cells to the test compounds; • Mean ODtest=the average of optical density measurements of SRB-derived color after exposure of cells to the test compound for a designated period of time; and • Mean ODctrl=the average of optical density measurements of SRB-derived color after with no exposure of cells to the test compound for a designated period of time
(§4) The first two columns describe the subpanel (e.g., leukemia) and cell line (e.g., CCRF-CEM) involved. The next two columns list the Mean ODzero and Mean ODctrl; the next five columns list the Mean ODtest for each of five different concentrations. Each concentration is expressed as the log10 (molar or μg/ml). The next five columns list the calculated PGs for each concentration. The response parameters GI50, TGI and LC50 are interpolated values representing the concentrations at which the PG is +50, 0, and −50, respectively. Sometimes these response parameters cannot be obtained by interpolation. If, for instance, all of the PGs in a given row exceed +50, then none of the three parameters can be obtained by interpolation. In such a case, the value given for each response parameter is the highest concentration tested and is preceded by a “>” sign. This practice is extended similarly to the other possible situations where a response parameter cannot be obtained by interpolation.
(§5) In the first set, the cells from 56 different cancer cell lines were exposed to five concentrations of arsenic trioxide continuously for two days prior to performing the SRB assay. In the second set, the cells from 50 different cell lines (a subset of the first 56 cell lines, plus the renal cancer cell line 786-0) were exposed continuously for six days prior to the SRB assay.

MDA-MB-435 = test: SRB growth assay, 6 days exposure, breast cancer; conditions: MDA-MB-435, 6 days
Experimental: as §1, §2, §3, §4, §5

PC-3 = test: SRB growth assay, 2 days exposure, prostate cancer
Experimental: as §1, §2, §3, §4, §5

DU-145 = test: SRB growth assay, 2 days exposure, prostate cancer
Experimental: as §1, §2, §3, §4, §5

NCI-H522 = test: SRB growth assay, 2 days exposure, non-small cell lung cancer
Experimental: as §1, §2, §3, §4, §5

HOP-62 = test: as above
Experimental: as §1, §2, §3, §4, §5

A549/ATCC = test: as above
Experimental: as §1, §2, §3, §4, §5

NCI-8322M = test: as above
Experimental: as §1, §2, §3, §4, §5

NCI-H460 = test: as above
Experimental: as §1, §2, §3, §4, §5

NCI-H23 = test: as above
Experimental: as §1, §2, §3, §4, §5

HOP-92 = test: as above
Experimental: as §1, §2, §3, §4, §5

EKVX = test: as above
Experimental: as §1, §2, §3, §4, §5

NCI-H226 = test: as above
Experimental: as §1, §2, §3, §4, §5

arsenic trioxide
TGI (T-47D): 2.90E−06 | Mean Optical Densities (T-47D; Log 10 Concentration −4.9): 0.027 | Percent Growth (T-47D; Log 10 Concentration −4.9): −73% | Mean Optical Densities (T-47D; Log 10 Concentration −5.9): 0.398 | Percent Growth (T-47D; Log 10 Concentration −5.9): 41% | Mean Optical Densities (T-47D; Log 10 Concentration −6.9): 0.539 | Percent Growth (T-47D; Log 10 Concentration −6.9): 61% | Mean Optical Densities (T-47D; Log 10 Concentration −7.9): 0.336 | Percent Growth (T-47D; Log 10 Concentration −7.9): 33% | Mean Optical Densities (T-47D; Log 10 Concentration −8.9): 0.883 | Percent Growth (T-47D; Log 10 Concentration −8.9): 108% | TGI (MDA-MB-435): 3.10E−06 | Mean Optical Densities (MDA-MB-435; Log 10 Concentration −4.9): 0.021 | Percent Growth (MDA-MB-435; Log 10 Concentration −4.9): −62% | Mean Optical Densities (MDA-MB-435; Log 10 Concentration −5.9): 0.631 | Percent Growth (MDA-MB-435; Log 10 Concentration −5.9): 40% | Mean Optical Densities (MDA-MB-435; Log 10 Concentration −6.9): 0.865 | Percent Growth (MDA-MB-435; Log 10 Concentration −6.9): 56% | Mean Optical Densities (MDA-MB-435; Log 10 Concentration −7.9): 1.470 | Percent Growth (MDA-MB-435; Log 10 Concentration −7.9): 98% | Mean Optical Densities (MDA-MB-435; Log 10 Concentration −8.9): 1.276 | Percent Growth (MDA-MB-435; Log 10 Concentration −8.9): 85% | TGI (PC-3): 0.011 ng/mL | Percent Growth (PC-3; log10 conc −4.9): −4% | Percent Growth (PC-3; log10 conc −5.9): 67% | Percent Growth (PC-3; log10 conc −6.9): 88% | Percent Growth (PC-3; log10 conc −7.9): 91% | Percent Growth (PC-3; log10 conc −8.9): 103% | TGI (DU-145): >0.0126 ng/mL | Percent Growth (DU-145; log10 conc −4.9): 64% | Percent Growth (DU-145; log10 conc −5.9): 96% | Percent Growth (DU-145; log10 conc −6.9): 106% | Percent Growth (DU-145; log10 conc −7.9): 131% | Percent Growth (DU-145; log10 conc −8.9): 91% | TGI (NCI-H522): 0.00708 ng/mL | Percent Growth (NCI-H522; log10 conc −4.9): −21% | Percent Growth (NCI-H522; log10 conc −5.9): 63% | Percent Growth (NCI-H522; log10 conc −6.9): 108% | Percent Growth (NCI-H522; log10 conc −7.9): 100% | Percent Growth (NCI-H522; log10 conc −8.9): 129% | TGI (HOP-62): >0.0126 ng/mL | Percent Growth (HOP-62; log10 conc −4.9): 35% | Percent Growth (HOP-62; log10 conc −5.9): 97% | Percent Growth (HOP-62; log10 conc −6.9): 100% | Percent Growth (HOP-62; log10 conc −7.9): 99% | Percent Growth (HOP-62; log10 conc −8.9): 97% | TGI (A549/ATCC): >0.0126 ng/mL | Percent Growth (A549/ATCC; log10 conc −4.9): 69% | Percent Growth (A549/ATCC; log10 conc −5.9): 108% | Percent Growth (A549/ATCC; log10 conc −6.9): 100% | Percent Growth (A549/ATCC; log10 conc −7.9): 102% | Percent Growth (A549/ATCC; log10 conc −8.9): 100% | TGI (NCI-8322M): >0.0126 ng/mL | Percent Growth (NCI-8322M; log10 conc −4.9): 61% | Percent Growth (NCI-8322M; log10 conc −5.9): 99% | Percent Growth (NCI-8322M; log10 conc −6.9): 97% | Percent Growth (NCI-8322M; log10 conc −7.9): 106% | Percent Growth (NCI-8322M; log10 conc −8.9): 117% | TGI (NCI-H460): >0.0126 ng/mL | Percent Growth (NCI-H460; log10 conc −4.9): 49% | Percent Growth (NCI-H460; log10 conc −5.9): 92% | Percent Growth (NCI-H460; log10 conc −6.9): 100% | Percent Growth (NCI-H460; log10 conc −7.9): 95% | Percent Growth (NCI-H460; log10 conc −8.9): 89% | TGI (NCI-H23): >0.0126 ng/mL | Percent Growth (NCI-H23; log10 conc −4.9): 58% | Percent Growth (NCI-H23; log10 conc −5.9): 101% | Percent Growth (NCI-H23; log10 conc −6.9): 127% | Percent Growth (NCI-H23; log10 conc −7.9): 121% | Percent Growth (NCI-H23; log10 conc −8.9): 115% | TGI (HOP-92): >0.0126 ng/mL | Percent Growth (HOP-92; log10 conc −4.9): 31% | Percent Growth (HOP-92; log10 conc −5.9): 74% | Percent Growth (HOP-92; log10 conc −6.9): 82% | Percent Growth (HOP-92; log10 conc −7.9): 92% | Percent Growth (HOP-92; log10 conc −8.9): 88% | TGI (EKVX): >0.0126 ng/mL | Percent Growth (EKVX; log10 conc −4.9): 11% | Percent Growth (EKVX; log10 conc −5.9): 130% | Percent Growth (EKVX; log10 conc −6.9): 127% | Percent Growth (EKVX; log10 conc −7.9): 129% | Percent Growth (EKVX; log10 conc −8.9): 119% | TGI (NCI-H226): >0.0126 ng/mL | Percent Growth (NCI-H226; log10 conc −4.9): 92% | Percent Growth (NCI-H226; log10 conc −5.9): 109% | Percent Growth (NCI-H226; log10 conc −6.9): 109% | Percent Growth (NCI-H226; log10 conc −7.9): 96% | Percent Growth (NCI-H226; log10 conc −8.9): 109%

Reference: patent publication US6875451B2, “Compositions and methods for the treatment of primary and metastatic neoplastic diseases using arsenic compounds” (PolaRx Biopharmaceuticals Inc., priority 1997, dated 2005)
